Experimental data reported in US7452908B2, “Amide derivatives” (Banyu Pharmaceutical Co., Ltd., priority 1999, dated 2008).

How the values were obtained:
[1] = target: T1, human m2 muscarinic acetylcholine receptor expressed in CHO cells (Homo sapiens, UniProt P08172); assay: Inhibition of [3H]-N-methylscopolamine binding to muscarinic m2 receptor; details: 0.2 nM [3H]-N-methylscopolamine
T1 construct: purchased Receptor Biology, Inc; host or cells: CHO cells
T1 sequence (P08172 1-466): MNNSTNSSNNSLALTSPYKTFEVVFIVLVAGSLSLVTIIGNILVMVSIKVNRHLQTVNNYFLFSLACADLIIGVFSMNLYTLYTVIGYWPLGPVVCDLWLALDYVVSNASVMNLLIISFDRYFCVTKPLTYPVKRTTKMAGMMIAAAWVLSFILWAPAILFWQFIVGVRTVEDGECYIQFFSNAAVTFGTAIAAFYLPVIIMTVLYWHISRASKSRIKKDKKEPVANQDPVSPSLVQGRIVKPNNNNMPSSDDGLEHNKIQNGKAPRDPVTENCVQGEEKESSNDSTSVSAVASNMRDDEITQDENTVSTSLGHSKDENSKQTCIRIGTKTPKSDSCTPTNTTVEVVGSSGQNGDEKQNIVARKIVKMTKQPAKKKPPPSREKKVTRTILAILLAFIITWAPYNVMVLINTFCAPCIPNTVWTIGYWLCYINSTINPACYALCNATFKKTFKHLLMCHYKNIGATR
Procedure: These tests were performed according to a modification of the method of Hargreaves, et al. (Br. J. Pharmacol. 107: 494-501, 1992). Namely, muscarinic acetylcholine receptors of human m1, m2, m3, m4 and m5 expressed in CHO cells (Receptor Biology, Inc.) were incubated with 0.2 nM [^3H]-N-methylscopolamine (82Ci/mmol, New England Nuclear, Inc.) and a test compound to be tested in 0.5 ml of 50 mM Tris-HCl, 10 mM MgCl2, 1 mM EDTA solution (pH 7.4) for 120 minutes at room temperature (about 20-25° C.), followed by suction filtration over a glass filter (UniFilter plate-GF/C; Packard). Then the filter was washed four times with 1 ml of ice-cold Tris-HCl buffer and dried at 50° C. for an hour. After adding a scintillator (Microscinti 0; Packard), the radioactivity of [^3H]-N-methylscopolamine binding to the filter was counted with a microplate scintillation counter (TopCount™; Packard). Non-specific receptor binding of [^3H]-N-methylscopolamine was measured by adding 1 μM N-methylscopolamine.

M2 receptor = target: T2, M2 receptor (Rattus norvegicus, UniProt P10980); assay: Antagonism to M2 receptor in vivo: acetylcholine-induced bradycardia reaction in rats; details: iv, acetylcholine (10 μg/kg) 5 minutes after test compound
T2 construct: from tissue; host or cells: whole animal, male SD rats (in vivo)
T2 sequence (P10980 1-466): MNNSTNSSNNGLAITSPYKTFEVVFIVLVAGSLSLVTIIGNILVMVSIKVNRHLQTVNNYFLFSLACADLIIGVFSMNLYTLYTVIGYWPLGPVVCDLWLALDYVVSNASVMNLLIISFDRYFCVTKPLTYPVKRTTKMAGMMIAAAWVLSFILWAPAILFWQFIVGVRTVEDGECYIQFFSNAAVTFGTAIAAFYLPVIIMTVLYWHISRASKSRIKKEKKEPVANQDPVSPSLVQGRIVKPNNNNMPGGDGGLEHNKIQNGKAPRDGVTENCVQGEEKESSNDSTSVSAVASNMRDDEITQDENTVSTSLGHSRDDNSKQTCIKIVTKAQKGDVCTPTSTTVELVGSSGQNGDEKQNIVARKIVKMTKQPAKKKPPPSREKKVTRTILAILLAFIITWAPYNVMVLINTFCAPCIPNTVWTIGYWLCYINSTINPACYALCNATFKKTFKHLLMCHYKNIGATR
Procedure: Male SD strain rats (weighing 300-500 g) were anesthetized with urethane (1 g/kg) and α-chloralose (50 mg/kg) administered intraperitoneally. […] In this experiment, one-dosage evaluation was conducted per one animal of the tested rats.

[2] = target: T3, airway M3 receptor in isolated rat trachea (Rattus norvegicus, UniProt P08483); assay: Antagonism to the airway M3 receptor in isolated rat trachea (carbachol-induced contraction); format: cell-based; details: for Kb: isolated rat trachea, shift of carbachol dose-response curve; for Selectivity M2/M3: ratio of KB right atrium M2 to KB trachea M3
T3 construct: from tissue; host or cells: trachea of male SD rats
Procedure: The test was performed according to a conventional method. Male SD strain rats (weighing 300-500 g) were killed by exsanguination, and from each of them the trachea was isolated. Annular segments (2 mm wide) were cut out from the trachea and cut transversely at the anterior cartilage part to make open ring preparation. Each preparation was suspended in a Magnus tube filled with 5 ml of Krebs-Henseleit solution (gassed with 95% O2-5% CO2 and kept at 32° C.) with an initial tension of 1.0 g and a resting tension of 0.6 g. The tension of the preparation was recorded isometrically. After being equilibrated for an hour, the preparation was made to contract twice by treatment with 10^−4 M carbachol, and the second contraction induced by carbachol was used as the reference contraction. After washing the preparation with fresh solution to restore it to the base line, a test compound was administered thereto (or no treatment was given). Ten minutes later, carbachol (10^−8 to 10^−3 M) was cumulatively administered in three-fold increasing doses to obtain a dose-response curve. The dose-responsecurve was plotted by expressing responses as percentages based on the reference contraction of the preparation as 100%. The antagonistic potency (KB value) of the test compound was determined from the degree of shift of the dose-responsecurve attributable to the treatment with the test compound.

M3 receptor = target: T4, M3 receptor (Canis lupus familiaris, UniProt A0A8I3N190); assay: Antagonism to M3 receptor: bronchodilation in anesthetized dogs (methacholine provocation test); format: in vivo, beagle dogs; details: inhalation of 1 mg/ml for 10 minutes, methacholine threshold four hours after administration
T4 construct: from tissue; host or cells: whole animal, male beagle dogs (in vivo, airway)
Procedure: The bronchodilation action of inhaled test compound was evaluated by measuring the compounds' inhibitory action on respiratory resistance-increasing reaction induced by a methacholine provocation test. For the experiment, 12 to 36 months old male beagle dogs (weighing 10-15 kg) were used. After being anesthetized by intravenous pentobarbital administration (30 mg/kg), the dogs were intubated cannulae in their trachea. After their respiration became stable, the cannulae were connected with Astograph (TCK-6100H, Chest) and a methacholine provocation test by 3 Hz oscillation method was conducted. […] The methacholine concentration at which the respiratory resistance increased to twice the initial value was recorded as the methacholine reaction threshold value. Before evaluating the test compounds, the methacholine reaction threshold value^1) under no drug treatment was measured at least twice at a week's interval, to select the dogs showing reproducible reaction.
The inhaling administration of each test compound (1 mg/ml) was conducted for 10 minutes under pentobarbital anesthetization (30 mg/kg, i.v.), with the nebulizer in the Astograph. […] The bronchodilator activity (shift value) of each tested compound was determined according to the following equation: […]

T3 sequence (P08483 whole entry): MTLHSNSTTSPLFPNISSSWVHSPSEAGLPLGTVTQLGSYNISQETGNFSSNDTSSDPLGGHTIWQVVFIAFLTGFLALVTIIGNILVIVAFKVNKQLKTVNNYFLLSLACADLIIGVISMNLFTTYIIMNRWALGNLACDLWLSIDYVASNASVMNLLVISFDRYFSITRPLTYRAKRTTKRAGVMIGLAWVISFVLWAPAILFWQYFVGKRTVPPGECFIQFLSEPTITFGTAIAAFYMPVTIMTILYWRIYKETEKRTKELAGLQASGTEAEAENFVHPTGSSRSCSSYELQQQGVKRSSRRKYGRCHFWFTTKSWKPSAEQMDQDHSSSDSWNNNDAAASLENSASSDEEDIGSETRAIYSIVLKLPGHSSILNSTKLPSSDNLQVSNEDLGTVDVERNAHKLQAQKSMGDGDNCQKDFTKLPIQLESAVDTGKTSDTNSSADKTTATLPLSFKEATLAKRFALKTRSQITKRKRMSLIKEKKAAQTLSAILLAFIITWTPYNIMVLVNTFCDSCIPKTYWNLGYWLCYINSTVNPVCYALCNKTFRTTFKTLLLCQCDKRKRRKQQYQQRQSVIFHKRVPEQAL
T4 sequence (A0A8I3N190 1-590): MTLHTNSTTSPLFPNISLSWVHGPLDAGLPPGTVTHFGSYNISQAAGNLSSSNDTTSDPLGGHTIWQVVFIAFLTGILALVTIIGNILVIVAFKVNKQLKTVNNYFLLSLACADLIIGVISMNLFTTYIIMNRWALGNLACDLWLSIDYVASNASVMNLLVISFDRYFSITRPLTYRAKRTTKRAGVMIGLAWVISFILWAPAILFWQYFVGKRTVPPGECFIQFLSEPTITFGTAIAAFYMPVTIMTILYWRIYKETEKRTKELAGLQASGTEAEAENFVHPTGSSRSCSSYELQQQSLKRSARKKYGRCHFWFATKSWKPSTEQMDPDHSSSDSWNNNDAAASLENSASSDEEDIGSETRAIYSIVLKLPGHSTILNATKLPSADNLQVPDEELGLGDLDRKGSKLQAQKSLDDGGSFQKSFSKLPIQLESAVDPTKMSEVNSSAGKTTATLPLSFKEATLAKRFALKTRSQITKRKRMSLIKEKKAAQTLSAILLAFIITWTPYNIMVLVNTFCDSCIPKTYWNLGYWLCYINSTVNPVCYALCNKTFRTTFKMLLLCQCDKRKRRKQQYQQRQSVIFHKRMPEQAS

Ki [1] | ED50 (M2 receptor) | Kb [2] | Selectivity M2/M3 [2] | Shift (fold) Airway constriction M3 (M3 receptor) | Structure (SMILES)
34 nM | 1.55 mg/kg | 2.3 nM | 70 times |  | O=C(CCNC(=O)CNC(=O)CC(c1ccccc1)(c1ccccc1)c1ccccc1)NC[C@H]1CCCN(CC2CCCCC2)C1 [Example 12, N-{2-(3-{((3R)-1-cyclohexylmethyl-3-piperidyl)methyl}amino-3-oxopropyl)amino-2-oxoethyl}-3,3,3-triphenyloropanamide]
810 nM | 0.114 mg/kg | 0.71 nM | 58 times | 20.2 fold | CC[N+]1(CC)CCC[C@H](CNC(=O)[C@H]2CCCN2C(=O)[C@@H]2C[C@@H](O)CN2C(=O)CC(c2ccccc2)(c2ccccc2)c2ccccc2)C1.[Cl-] [Example 133, (3R)-1,1-diethyl-3-({({(2R)-1-({(2S,4R)-4-hydroxy-1-(3,3,3-triphenylpropanoyl)-2-pyrrolidinyl}carbonyl)-2-pyrrolidinyl}carbonyl)amino}methyl)piperidinium chloride]
